Results: patent US4656166A, “Antibiotic compounds derived from cephalosporins, process for their production and pharmaceutical compositions” (Sanofi, priority 1983, dated 1987)
Converted amounts (≈) assume the structure as drawn. Where a name gives a salt, the structure may show the parent alone. Read-outs that look alike come from different tables or passages of the source.

Legend:
[1] = tested on: Escherichia coli SOL 90; test: septicemic model of the mouse, Escherichia coli SOL 90 (Table V); type: in vivo; conditions: SOL90, sc, 96 h, mouse septicemia, sub-cutaneous, 1 to 5 hours after inoculation, 4 days observation, read-out: DE50 (the source's name)
Experimental: The therapeutic effectiveness of the products was determined on the septicemic model of the mouse. the septicemia was initiated by the intraperitoneal innoculation of 0.5 ml of a suitable dilution of a suspension of the Escherichia coli SOL 90 strain. The products were administered in solution in a phosphate buffer pH 7.0 in a volume of 0.2 ml sub-cutaneously to batches of 10 mice, 1 to 5 hours after innoculation of the microorganism. After 4 days of observation in the course of which the mortality was noted, the 50% effective doses (DE 50) were calculated by the Muench and Reed method.

[2] = tested on: Pseudomonas RL 112; test: MIC, in vitro dilution method, Pseudomonas RL 112 (Table III); type: cell-based; conditions: RL112
Summary of the method: (§1)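 Compounds are serially diluted in vitro and tested for bacteriostatic effect on each Gram-negative strain; the lowest inhibiting concentration is recorded as MIC (μg/ml).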

[3] = tested on: Proteus vulgaris GN 76/C.1; test: MIC on beta-lactamase producing strain Proteus vulgaris GN 76/C.1 (Table IV); type: cell-based; conditions: GN76
Experimental: (§2) To evaluate the stability of these products towards beta-lactamases, their MIC was determined on isogenic strains producing and not producing beta-lactamases.
(§3) The results are expressed in μg/ml in Table IV.

[4] = tested on: Serratia RL 72; test: MIC, in vitro dilution method, Serratia RL 72 (Table III); type: cell-based; conditions: RL72
Summary of the method: as §1

[5] = tested on: Escherichia coli SOL 90; test: MIC, in vitro dilution method, Escherichia coli SOL 90 (Table III); type: cell-based; conditions: SOL90
Summary of the method: as §1

[6] = tested on: Klebsiella RO 30; test: MIC, in vitro dilution method, Klebsiella RO 30 (Table III); type: cell-based; conditions: RO30
Summary of the method: as §1

[7] = tested on: Proteus vulgaris RL 99 bis; test: MIC, in vitro dilution method, Proteus vulgaris RL 99 bis (Table III); type: cell-based; conditions: RL99BIS
Summary of the method: as §1

[8] = tested on: Citrobacter RL 49; test: MIC, in vitro dilution method, Citrobacter RL 49 (Table III); type: cell-based; conditions: RL49
Summary of the method: as §1

[9] = tested on: Escherichia coli 255/L.7; test: MIC on strain not producing beta-lactamase, Escherichia coli 255/L.7 (Table IV); type: cell-based
Experimental: as §2, §3

[10] = tested on: Serrtia liquefaciens SL 1326 S; test: MIC on strain not producing beta-lactamase, Serratia liquefaciens SL 1326 S (Table IV); type: cell-based; conditions: SL1326S, not producing beta-lactamases
Experimental: as §2, §3

[11] = tested on: Serrtia liquefaciens SL/326 A; test: MIC on beta-lactamase producing strain Serratia liquefaciens SL/326 A (Table IV); type: cell-based
Experimental: as §2, §3

[12] = tested on: Enterobacter RO 154; test: MIC, in vitro dilution method, Enterobacter RO 154 (Table III); type: cell-based; conditions: RO154
Summary of the method: as §1

[13] = tested on: Escherichia coli 255; test: MIC on beta-lactamase producing strain Escherichia coli 255 (Table IV); type: cell-based; conditions: Escherichia coli 255, producing beta-lactamases; read-out: MIC
Experimental: as §2, §3

[14] = tested on: Klebsiella RO 30; test: septicemic model of the mouse, Klebsiella RO 30 (Table V); type: in vivo; conditions: RO30, sc, 96 h, mouse septicemia, sub-cutaneous, 4 days observation, read-out: DE50 (the source's name)
[15] = tested on: Proteus vulgaris GN 76/C.1/3; test: MIC on strain not producing beta-lactamase, Proteus vulgaris GN 76/C.1/3 (Table IV); type: cell-based; conditions: GN76, not producing beta-lactamases
Experimental: as §2, §3

[16] = Proteus vulgaris GN 76/C.1, producing beta-lactamases, read-out: MIC
[17] = Escherichia coli SOL 90, dilution method, read-out: MIC
[18] = Klebsiella RO 30, dilution method, read-out: MIC
[19] = Proteus vulgaris RL 99 bis, dilution method, read-out: MIC
[20] = Citrobacter RL 49, dilution method, read-out: MIC
[21] = Escherichia coli 255/L.7 *, not producing beta-lactamases, read-out: MIC
[22] = Enterobacter RO 154, dilution method, read-out: MIC

SMILES	ED50 [1] [mg/kg]	MIC [2] [µg/mL]	MIC [3, 16] [µg/mL]	MIC [4] [µg/mL]	MIC [5, 17] [µg/mL]	MIC [6, 18] [µg/mL]	MIC [7, 19] [µg/mL]	MIC [8, 20] [µg/mL]	MIC [9, 21] [µg/mL]	MIC [10] [µg/mL]	MIC [11] [µg/mL]	MIC [12, 22] [µg/mL]	MIC [13] [µg/mL]	ED50 [14] [mg/kg]	MIC [15] [µg/mL]	other results
CC(C)(CN)C(=O)OCC1=C(C(=O)O)N2C(=O)C(NC(=O)/C(=N\OC(C)(C)C(=O)O)c3csc(N)n3)C2[S+]([O-])C1 (centres unmarked) [42 073]	0.33	4 (≈ 6.66 µM)	0.5 (≈ 0.832 µM)	2 (≈ 3.33 µM)	1 (≈ 1.66 µM)	0.5 (≈ 0.832 µM)	0.5 (≈ 0.832 µM)	0.5 (≈ 0.832 µM)	0.25 (≈ 0.416 µM)	≤ 0.12	0.25 (≈ 0.416 µM)	4 (≈ 6.66 µM)	0.5 (≈ 0.832 µM)			
CC(C)(O/N=C(\C(=O)NC1C(=O)N2C(C(=O)O)=C(COC(=O)C3CCNCC3)C[S+]([O-])C12)c1csc(N)n1)C(=O)O (stereo not drawn) [41 862, 7-[2-(2-Amino 4-thiazolyl)2-(2-carboxy 2-propyloxyimino)acetamido]3-(4-piperidinyl)carbonyl oxymethyl 3-cepheme 4-carboxylic1β-S-oxide acid trifluoroacetate syn isomer]	0.13	4	≤ 0.12	0.5	0.25	0.25	≤ 0.12	0.25		≤ 0.12	≤ 0.25	1	≤ 0.12	0.1	≤ 0.12	MIC ([9]; Escherichia coli, 255/L.7): 0.12 µg/mL
CC(C)(ON=C(C(=O)NC1C(=O)N2C(C(=O)O)=C(CSC(=O)C3CCNCC3)C[S+]([O-])C12)c1csc(N)n1)C(=O)O (centres unmarked) [compound 41973]	0.22		0.5 (≈ 0.795 µM)						0.25 (≈ 0.398 µM)	≤ 0.12	0.25 (≈ 0.398 µM)		0.25 (≈ 0.398 µM)	0.4		
CC(C)(O/N=C(\C(=O)NC1C(=O)N2C(C(=O)O)=C(COC(=O)CCCN)C[S+]([O-])C12)c1csc(N)n1)C(=O)O (centres unmarked) [41 854]	0.23	4 (≈ 6.82 µM)	0.25 (≈ 0.426 µM)	0.5 (≈ 0.852 µM)	0.25 (≈ 0.426 µM)	0.25 (≈ 0.426 µM)	≤ 0.12	0.5 (≈ 0.852 µM)	≤ 0.12	≤ 0.12	0.25 (≈ 0.426 µM)	2 (≈ 3.41 µM)	≤ 0.12	0.19		
CC(C)(O/N=C(\C(=O)NC1C(=O)N2C(C(=O)O)=C(COC(=O)CCCCCN)C[S+]([O-])C12)c1csc(N)n1)C(=O)O (centres unmarked) [41 855]	0.16	8 (≈ 13 µM)	≤ 0.12	0.5 (≈ 0.813 µM)	0.25 (≈ 0.407 µM)	0.25 (≈ 0.407 µM)	≤ 0.12	1 (≈ 1.63 µM)	≤ 0.12	≤ 0.12	0.25 (≈ 0.407 µM)	2 (≈ 3.25 µM)	≤ 0.12	0.17	≤ 0.12	
CNCc1ccc(C(=O)OCC2=C(C(=O)O)N3C(=O)C(NC(=O)/C(=N\OC(C)(C)C(=O)O)c4csc(N)n4)C3[S+]([O-])C2)cc1 (centres unmarked) [42 395]		4 (≈ 6.17 µM)		0.5 (≈ 0.771 µM)					0.0625 (≈ 0.0964 µM)	≤ 0.0312	0.125 (≈ 0.193 µM)		0.0625 (≈ 0.0964 µM)		≤ 0.0312	MIC ([3]; Proteus vulgaris): ≤ 0.0312 µg/mL; MIC ([5]; Escherichia coli): ≤ 0.125 µg/mL; MIC ([6]; Klebsiella): ≤ 0.125 µg/mL; MIC ([7]; Proteus vulgaris): ≤ 0.125 µg/mL; MIC ([8]; Citrobacter): ≤ 0.125 µg/mL; MIC ([12]; Enterobacter): ≤ 0.125 µg/mL
